The results in this text go back to PubChem BioAssay AID330 (DTP/NCI, 2004).

Molecules are shown by their SMILES. Values joined by “and” are separate entries in the source; they are usually repeats but may differ in a detail not shown here. Equal values may be shown once. Toxic doses and inconclusive results are not listed.

This experiment concerns P388 leukemia ip, CD2F1 mice, survival T/C. Kind of experiment: NCI In Vivo Anticancer Drug Screen. Data for tumor model P388 Leukemia (intraperitoneal) in CD2F1 (CDF1) mice. The settings on record: endpoint: median survival time, higher = longer survival. A digest of the protocol:
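Mice carrying the transplanted tumor received test compound or vehicle. Survival was recorded in each group, and the value is the treated-group measurement divided by that of the vehicle-treated control group.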

Where [1] appears, read: dose: 25.0 mg/kg/injection, schedule: Q01DX009 (ip), vehicle: saline with Tween-80.
Setting [2] is: dose: 50.0 mg/kg/injection, schedule: Q01DX009 (ip), vehicle: saline with Tween-80.
[3] abbreviates: dose: 100.0 mg/kg/injection, schedule: Q01DX009 (ip), vehicle: saline with Tween-80.
The mark [4] stands for this setting: dose: 200.0 mg/kg/injection, schedule: Q01DX009 (ip), vehicle: saline with Tween-80.
Where [5] appears, read: dose: 400.0 mg/kg/injection, schedule: Q01DX009 (ip), vehicle: saline with Tween-80.
The mark [6] stands for this setting: dose: 12.5 mg/kg/injection, schedule: Q01DX009 (ip), vehicle: saline with Tween-80.
Setting [7] is: dose: 12.5 mg/kg/injection, schedule: Q01DX009 (ip), vehicle: saline.
The mark [8] stands for this setting: dose: 25.0 mg/kg/injection, schedule: Q01DX009 (ip), vehicle: Klucel (hydroxypropylcellulose) (HPC).
Where [9] appears, read: dose: 25.0 mg/kg/injection, schedule: Q01DX009 (ip), vehicle: saline.
[10] abbreviates: dose: 50.0 mg/kg/injection, schedule: Q01DX009 (ip), vehicle: Klucel (hydroxypropylcellulose) (HPC).
The mark [11] stands for this setting: dose: 50.0 mg/kg/injection, schedule: Q01DX009 (ip), vehicle: saline.
Where [12] appears, read: dose: 100.0 mg/kg/injection, schedule: Q01DX009 (ip), vehicle: Klucel (hydroxypropylcellulose) (HPC).
Setting [13] is: dose: 50.0 mg/kg/injection, schedule: Q01DX005 (ip), vehicle: saline with Tween-80.
Setting [14] is: dose: 100.0 mg/kg/injection, schedule: Q01DX005 (ip), vehicle: saline with Tween-80.
The mark [15] stands for this setting: dose: 200.0 mg/kg/injection, schedule: Q01DX005 (ip), vehicle: saline with Tween-80.
Setting [16] is: dose: 12.5 mg/kg/injection, schedule: Q01DX005 (ip), vehicle: saline with Tween-80.
Where [17] appears, read: dose: 25.0 mg/kg/injection, schedule: Q01DX005 (ip), vehicle: saline with Tween-80.

For `CC(=O)n1cc(C2CC(=O)OC3=C2CC(=O)C(C)(C)C3)c2ccccc21` (centres undefined), the T/C is 100 % of control under setting [1]; 103 % of control under setting [2]; 110 % of control under setting [3]; 113 % of control under setting [4]; 119 % of control under setting [5].

As for `CC(=O)OCC1OC(n2ccc3c(=O)[nH]c(=O)[nH]c32)C(OC(C)=O)C(OC(C)=O)C1OC(C)=O` (centres undefined), the T/C by setting is: (dose: 100.0 mg/kg/injection, schedule: Q01DX001 (ip), vehicle: saline with Tween-80) 104 % of control; (dose: 200.0 mg/kg/injection, schedule: Q01DX001 (ip), vehicle: saline with Tween-80) 99 % of control; (dose: 400.0 mg/kg/injection, schedule: Q01DX001 (ip), vehicle: saline with Tween-80) 100 % of control.

For the molecule `CN(C)CCCO[Si](C)(c1ccccc1)c1ccc(F)cc1` (centres undefined), the T/C by setting is: under setting [6], 105 % of control; under setting [1], 101 % of control; under setting [2], 110 % of control and 97 % of control; under setting [3], 86 % of control.

Regarding `Cc1ccc2c(C)c3c(ccc4ccccc43)c[n+]2c1`, the T/C is 103 % of control (dose: 2.5 mg/kg/injection, schedule: Q04DX003 (ip), vehicle: other); 101 % of control (dose: 5.0 mg/kg/injection, schedule: Q04DX003 (ip), vehicle: other); 100 % of control (dose: 10.0 mg/kg/injection, schedule: Q04DX003 (ip), vehicle: other); 104 % of control (dose: 20.0 mg/kg/injection, schedule: Q04DX003 (ip), vehicle: other).

Consider `CC1C=CC(C)c2c(-c3ccccc3)oc(-c3ccccc3)c21` (centres undefined), for which the T/C runs as follows: under setting [3], 95 % of control; under setting [4], 104 % of control; under setting [5], 108 % of control.

In the case of `COc1ccc2c(c1)CCn1c(C)c(COC(=O)NC3CCCCC3)c(COC(=O)NC3CCCCC3)c1-2`, the T/C runs as follows: (dose: 50.0 mg/kg/injection, schedule: Q01DX009 (ip), vehicle: distilled water + Tween-80) 151 % of control and 164 % of control; (dose: 100.0 mg/kg/injection, schedule: Q01DX009 (ip), vehicle: distilled water + Tween-80) 92 % of control.

Take `CC(=O)OCC1=CC2OC(=O)C3=COC(OC4OC(CO)C(O)C(O)C4O)C1C32` (centres undefined): the T/C is, setting by setting: under setting [7], 93 % of control; under setting [8], 88 % of control; under setting [9], 98 % of control; under setting [10], 88 % of control; under setting [11], 98 % of control; (dose: 50.0 mg/kg/injection, schedule: Q04DX002 (ip), vehicle: saline) 107 % of control. For the same molecule, the T/C under setting [12] was 89 % of control; the T/C (dose: 100.0 mg/kg/injection, schedule: Q04DX002 (ip), vehicle: saline) was 101 % of control; the T/C (dose: 200.0 mg/kg/injection, schedule: Q04DX002 (ip), vehicle: saline) is 99 % of control.

For `CCN=C(c1ccc(NC(=O)c2ccc(C(=O)Nc3ccc(C(=NCC)N(CC)CC)cc3)c(Cl)c2)cc1)N(CC)CC`, the T/C is, setting by setting: (dose: 0.05 mg/kg/injection, schedule: Q01DX005 (ip), vehicle: saline) 104 % of control; (dose: 0.09 mg/kg/injection, schedule: Q01DX005 (ip), vehicle: saline) 87 % of control; (dose: 0.19 mg/kg/injection, schedule: Q01DX005 (ip), vehicle: saline) 97 % of control; (dose: 0.39 mg/kg/injection, schedule: Q01DX005 (ip), vehicle: saline) 102 % of control and 97 % of control.

For the molecule `Cc1cc(OC(=O)Nc2ccc(C(C)C)cc2)c(C)cc1Br`, the T/C runs as follows: (dose: 6.25 mg/kg/injection, schedule: Q01DX009 (ip), vehicle: saline) 89 % of control; under setting [7], 92 % of control; under setting [9], 98 % of control; (dose: 100.0 mg/kg/injection, schedule: Q01DX009 (ip), vehicle: saline + alcohol) 98 % of control; (dose: 200.0 mg/kg/injection, schedule: Q01DX009 (ip), vehicle: saline + alcohol) 110 % of control.

Consider `O=C1C(N2CCCCC2)=C(N2CC2)C(=O)C(N2CCCCC2)=C1N1CC1`, for which the T/C (dose: 2.5 mg/kg/injection, schedule: Q01DX009 (ip), vehicle: saline) is 112 % of control and the T/C (dose: 10.0 mg/kg/injection, schedule: Q01DX009 (ip), vehicle: saline) is 177 % of control.

`COC1/C=C/OC2(C)Oc3c(C)c(O)c4c(O)c(c(/C=N/n5cnc6c(ncn6C6OC(CO)C(O)C6O)c5=O)c(O)c4c3C2=O)NC(=O)/C(C)=C\C=C\C(C)C(O)C(C)C(O)C(C)C(OC(C)=O)C1C` (centres undefined): the T/C is 106 % of control under setting [2], 97 % of control under setting [3] and 102 % of control under setting [4].

On to `CCOC(=O)C(=O)Cc1nc2ccccc2nc1C`, for which the T/C is 93 % of control (dose: 60.0 mg/kg/injection, schedule: Q01DX005 (ip), vehicle: saline with Tween-80) and 97 % of control (dose: 120.0 mg/kg/injection, schedule: Q01DX005 (ip), vehicle: saline with Tween-80).

Consider `COc1cccc2c1C(=O)c1c(O)c3c(c(O)c1C2=O)CC(O)(/C(C)=N/NC(=O)CCCCC(=O)N/N=C(\C)C1(O)Cc2c(O)c4c(c(O)c2C(OC2CC(N)C(O)C(C)O2)C1)C(=O)c1c(OC)cccc1C4=O)CC3OC1CC(N)C(O)C(C)O1` (centres undefined), for which the T/C is, setting by setting: (dose: 0.2 mg/kg/injection, schedule: Q01DX009 (ip), vehicle: water) 118 % of control; (dose: 0.78 mg/kg/injection, schedule: Q01DX009 (ip), vehicle: water) 154 % of control; (dose: 1.56 mg/kg/injection, schedule: Q01DX009 (ip), vehicle: water) 157 % of control and 172 % of control; (dose: 3.13 mg/kg/injection, schedule: Q01DX009 (ip), vehicle: water) 186 % of control and 189 % of control; (dose: 6.25 mg/kg/injection, schedule: Q01DX009 (ip), vehicle: water) 281 % of control and 289 % of control; (dose: 12.5 mg/kg/injection, schedule: Q01DX009 (ip), vehicle: water) 100 % of control and 102 % of control.

`O=S(=O)(Nc1nccs1)c1ccc(N=Cc2c3ccccc3nc3cc(Cl)ccc23)cc1`: the T/C under setting [13] was 94 % of control, the T/C under setting [14] was 93 % of control and the T/C under setting [15] is 96 % of control.

With `CC1=NN(c2cccc(C(F)(F)F)c2)C(=O)C1`, the T/C is 100 % of control under setting [8], 106 % of control under setting [10] and 102 % of control under setting [12].

On to `CN1CC(F)OC(F)(F)C1` (centres undefined), for which the T/C by setting is: (dose: 50.0 mg/kg/injection, schedule: Q01DX005 (ip), vehicle: saline) 102 % of control; (dose: 100.0 mg/kg/injection, schedule: Q01DX005 (ip), vehicle: saline) 100 % of control; (dose: 200.0 mg/kg/injection, schedule: Q01DX005 (ip), vehicle: saline) 100 % of control.

Take `O=[N+]([O-])c1cccc2c[n+](Cc3ccccc3)ccc12`: the T/C is 113 % of control under setting [6], 118 % of control under setting [1] and 107 % of control under setting [2].

As to `COc1cc2cc[n+]3c4ccc([N+](=O)[O-])cc4ccc3c2cc1OC`, the T/C under setting [15] was 89 % of control.

As for `CC1=C(C)CN(CCc2c[nH]c3ccccc23)C(C#N)C1` (centres undefined), the T/C by setting is: under setting [16], 102 % of control; under setting [17], 108 % of control; under setting [13], 102 % of control and 117 % of control.

With `FC(F)(F)c1ccccc1NC(=S)N1CCN(c2ccccc2)CC1`, the T/C runs as follows: (dose: 50.0 mg/kg/injection, schedule: Q01DX009 (ip), vehicle: gum acacia) 109 % of control; (dose: 100.0 mg/kg/injection, schedule: Q01DX009 (ip), vehicle: gum acacia) 100 % of control; (dose: 200.0 mg/kg/injection, schedule: Q01DX009 (ip), vehicle: gum acacia) 92 % of control.

For `O=c1c2ccccc2oc2cc3c(c(O)c12)CCCC3`, the T/C under setting [16] is 91 % of control and the T/C under setting [17] is 97 % of control.

In the case of `CC(C)(C)C1C/C(=C2\COC(=O)C2=O)NN1c1ccccc1` (centres undefined), the T/C was 92 % of control under setting [11]; 91 % of control (dose: 100.0 mg/kg/injection, schedule: Q01DX009 (ip), vehicle: saline); 91 % of control (dose: 200.0 mg/kg/injection, schedule: Q01DX009 (ip), vehicle: saline).

Regarding `O=C(CCc1n[nH]c(=S)o1)Nc1ccccc1`, the T/C runs as follows: under setting [13], 102 % of control; under setting [14], 95 % of control; under setting [15], 96 % of control.
